Test results as given in publication PMC8308625, “Preclinical Studies in Anti-Trypanosomatidae Drug Development” (Pharmaceuticals, 2021).
Like-named read-outs stand apart in the source and are kept apart here. Each block holds one molecule with its values, some of them ahead of it.

Experiments:
T. cruzi = conditions: cited from earlier work
[1] = system: L. infantum reference strain (MHOM/BR/2002/LPC-RPV); test: Growth inhibition of L. infantum reference strain promastigotes (resazurin); conditions: for EC50: read-out: EC50 ± SD Lin–Ref
T. brucei = test: Growth inhibition of T. brucei bloodstream form trypomastigotes (resazurin); assay type: cell-based, Trypanosoma brucei brucei; conditions: for EC50: read-out: EC50 ± SD T. brucei
Method: Compounds were dissolved in dimethylsulfoxide (DMSO).

fibroblasts (NCTC929) = test: Cytotoxicity in fibroblasts; assay type: cell-based
Source text: Table 5 Cytotoxicity and selectivity index of reference drugs and selected molecules. | column: EC50 ± SD (µM) ^a / Fibroblasts

L. infantum amastigote = test: Single dose study in the amastigote form of L. infantum; assay type: cell-based; conditions: Leishmania infantum, single dose 10 µM
[2] = parameters: method as in PMID 24749923, PMID 26492824, PMID 25512408; conditions: ref [13],[14],[15]; cited from earlier work
[3] = cited from earlier work
[4] = cited from earlier work; remark: listed apart in the source
[5] = mice, up and down test, cited from earlier work
L. braziliensis = conditions: read-out: EC50 ± SD L. brazils, cited from earlier work
[6] = Acute oral toxicity (up and down test); conditions: mice
L. amazonensis [7] = test: Murine model of cutaneous Leishmaniasis; conditions: BALB/c mice, oral, when treatment begins (Figure 2C)
[8] = system: J774.1 murine macrophages; test: Nonspecific cytotoxicity in murine macrophages (MTT)
L. amazonensis [9] = test: Growth inhibition of L. amazonensis promastigotes (resazurin); conditions: for EC50: read-out: EC50 ± SD L. amaz
[10] = system: L. infantum veterinary isolate (MCAN_UY_2015_gPL8); test: Growth inhibition of L. infantum veterinary isolate promastigotes (resazurin); conditions: for EC50: read-out: EC50 ± SD Lin–Vet
[11] = Liver fraction stability (cytosolic and microsomal fraction of rat hepatocytes, TLC); assay type: in vitro ADME; conditions: rat hepatocyte cytosolic and microsomal fractions, 37 °C
Method: For the determination of the stability in the different fractions, (cytosolic and microsomal of rat hepatocytes) the different proteins present in them were used. The fractions were prepared according to the previously reported protocol. […] The final concentration of the molecules in the aqueous medium was 400 µM and prepared from a stock in DMSO of 40 mM. The solutions were homogenized and incubated at 37 °C at 10 min, 30 min, 1 h, 2 h, 3 h and 4 h. (by TLC). For this, it was incubated at 37 °C in a volume of 1 mL: 2.5 µL of 30 mM Magnesium Chloride (MgCl); 2.5 µL of 40 mM Nicotinamide Adenosine Dinucleotide Phosphate (NADP+); 5 µL of 350 mM Glucose 6- Phosphate (Glu6P); 5 µL of Glucose 6- phosphate dehydrogenase (Glu6PD) 50 U/mL, 5 µL of the stock of 40 mM compounds and the volume of the Phosphate Buffer (pH = 7) must be such that cytosolic (CF) and microsomal (MF) fraction FC and FM present a final protein concentration of 0.1 mg/mL. After that, the stability of compounds 796 and 1019 in the cytosolic (FCF) and microsomal (FMF) fraction of rat hepatocytes was evaluated at different times (1–4 h). Thin-layer chromatography of ethyl acetate extracts was conducted to evaluate the presence of decomposition products. The mobile phase used for these TLCs was n-hexane: ethyl acetate (7: 3).

[12] = Table 3, thiazolidene hydrazines, ref [13],[16],[19],[23],[25], read-out: EC50 ± SD T. cruzi
[13] = Trypanosoma brucei, Table 3, thiazolidene hydrazines
[14] = Table 4, curcuminoids, ref [14], read-out: EC50 ± SD T. cruzi
[15] = Table 4, curcuminoids, L. infantum reference strain
[16] = read-out: EC50 ± SD Fibroblasts
[17] = Table 4, curcuminoids, ref [14]
[18] = read-out: EC50 ± SD MΦ, murine macrophages, footnote: J774.1 macrophages or differentiated THP-1 monocytes
[19] = Table 4, curcuminoids, L. infantum veterinary isolate

SMILES: C=CCNC(=S)NN=CC=Cc1ccc(C)o1 [Compound 263]
- EC50 (T. cruzi; [12]): 5 ± 1 µM
- EC50 ([1]; Table 3, thiazolidene hydrazines, L. infantum reference strain): < 0.3 µM

SMILES: C=CCn1c(-c2ccc(Cl)cc2)cs\c1=N/N=C/C=C/c1ccco1 [Compound 266]
- EC50 (T. brucei; [13]): 5 ± 1 µM
- EC50 (fibroblasts (NCTC929); NCTC-929, read-out: EC50 ± SD Fibroblasts): 405 ± 10 µM
- inhibition at 10 µM (L. infantum amastigote): 69%
- EC50 (T. cruzi; [12]): 1.6 ± 0.5 µM
- EC50 (T. cruzi; amastigotes, multiple strains, ref [13],[14],[15], read-out: EC50 in vitro anti-T. cruzi, amastigotes): > 0.25 µM
- Stability in vitro (microsomal, plasma, other solutions) [2]: high
- AMES test, mutagenic capacity ([3]; previous works, ref [13],[16]): negative
- Ames Test (mutagenicity) ([3]; ref [13],[14],[15]): no
- micronucleus test, genotoxicity ([4]; previous works, ref [13],[16]): not genotoxic
- Micronucleus test in mice (Genotoxicity) ([4]; ref [13],[14],[15]): no
- acute toxicity LD50 ([5]; previously evaluated, ref [13],[16]): > 2000 mg/kg of weight
- Acute oral toxicity LD50 ([5]; ref [13],[14],[15]): LD50 > 2000 mg/kg in mice
- EC50 (L. braziliensis; Table 3, thiazolidene hydrazines, ref [13],[16],[19],[23],[25]): 20 ± 2 µM
- survival in the acute toxicity model in vivo [6]: 100%
- diameter of the paw (L. amazonensis [7]): begins to decrease
- EC50 ([8]; Mus musculus, J774.1, read-out: EC50 ± SD MΦ): 60 ± 6 µM
- Selectivity Index MΦ/L. amaz (L. amazonensis [9]; EC50 mammalian cell line/EC50 L. amazonensis): 9
- EC50 (L. amazonensis [9]; Leishmania amazonensis): 7 ± 1 µM
- Selectivity Index MΦ/Lin–Ref ([1]; EC50 mammalian cell line/EC50 L. infantum reference strain): 30
- EC50 ([1]; Leishmania infantum): 2 ± 0.2 µM
- Selectivity Index MΦ/Lin–Vet ([10]; EC50 mammalian cell line/EC50 L. infantum veterinary isolate): 7
- EC50 ([10]; Leishmania infantum): 9 ± 1 µM

SMILES: O=C(C=CC=Cc1ccccc1)C=CC=Cc1ccccc1 [Compound 797]
- EC50 (T. cruzi; [14]): 11 ± 2 µM

SMILES: O=C1C(=Cc2ccccc2)CCCC1=Cc1ccccc1 [Compound 799]
- EC50 (T. brucei; Table 4, curcuminoids): 1.7 ± 0.5 µM
- metabolic stability: time compound detected / degraded [11]: < 1 h
- EC50 (T. cruzi; [14]): 5 ± 1 µM
- EC50 (L. braziliensis; [17]): 4.2 ± 0.9 µM
- EC50 [8, 18]: 115 ± 8 µM
- EC50 (L. amazonensis [9]; Table 4, curcuminoids): 5 ± 1 µM
- EC50 [1, 15]: < 0.3 µM
- EC50 [10, 19]: 12 ± 3 µM

SMILES: O=C1C(=CC=Cc2ccccc2)CCCC1=CC=Cc1ccccc1 [Compound 800]
- EC50 (T. brucei; Table 4, curcuminoids): 15 ± 1 µM
- EC50 (T. cruzi; [14]): 14 µM

SMILES: C=CCn1c(-c2ccc(Cl)cc2)cs\c1=N/N=C/C(C)=C/c1ccco1 [Compound 873]
- EC50 (T. brucei; [13]): 14 ± 3 µM
- EC50 (T. cruzi; [12]): 0.09 ± 0.02 µM

SMILES: C=CCn1c(-c2ccc(Cl)cc2)csc1=NN=Cc1ccsc1 [Compound 877]
- EC50 (T. brucei; Table 3, thiazolidene hydrazines): 10 ± 1 µM
- EC50 (T. cruzi; [12]): 15 ± 3 µM

Now from value to molecule, other results behind:

- EC50 (T. brucei; Table 4, curcuminoids): 17 ± 2 µM
- EC50 [1, 15]: < 0.3 µM
SMILES: O=C(C=CC=Cc1ccco1)C=CC=Cc1ccco1 [Compound 793]
- EC50 (T. cruzi; [14]): 5 ± 0.7 µM

- EC50 (T. brucei; Table 4, curcuminoids): 1.8 ± 0.5 µM
- metabolic stability: time compound detected / degraded [11]: < 1 h
- EC50 (L. amazonensis [9]; Table 4, curcuminoids): 10 ± 6 µM
- EC50 [1, 15]: 5 ± 1 µM
- EC50 [10, 19]: 10 ± 2 µM
SMILES: O=C(C=Cc1ccco1)C=Cc1ccco1 [Compound 795]
- EC50 (fibroblasts (NCTC929); [16]): 114 ± 6 µM
- EC50 (T. cruzi; [14]): 24 ± 2 µM
- EC50 (L. braziliensis; [17]): 6 ± 2 µM
- EC50 [8, 18]: 115 ± 2 µM

- EC50 [1, 15]: 3 ± 0.5 µM
SMILES: O=C(C=CC=Cc1cccs1)C=CC=Cc1cccs1 [Compound 798]
- EC50 (T. cruzi; [14]): 13 ± 1 µM
- EC50 (L. braziliensis; [17]): 19 ± 5 µM

- EC50 (L. amazonensis [9]; Table 4, curcuminoids): 16 ± 2 µM
- EC50 [1, 15]: 3 ± 1 µM
SMILES: CC(C=CC(=O)C=CC(C)=Cc1ccco1)=Cc1ccco1 [Compound 809]
- trypanosomicidal effect on T. brucei (T. brucei): no trypanosomicidal effect
- EC50 (fibroblasts (NCTC929); [16]): 543 ± 6 µM
- EC50 (T. cruzi; [14]): 8 ± 2 µM
- EC50 (L. braziliensis; [17]): 6 ± 1 µM
- EC50 [8, 18]: 33 ± 8 µM
- growth inhibitory / trypanosomicidal effect on the L. infantum canine-derived isolate [10]: no trypanosomicidal effect

- EC50 (T. brucei; [13]): 5 ± 1 µM
SMILES: Clc1ccc(-c2csc(N/N=C/C=C/c3ccco3)n2)cc1 [Compound 901]
- EC50 (T. cruzi; [12]): 1.2 ± 0.3 µM
